Experimental data reported in patent US12611423B2, “Medical use of tafoxiparin” (DILAFOR AB, priority 2022, dated 2026).

Tested on: term pregnant, nulliparous women with an unripe cervix
Assay: Clinical phase II trial PPL17 (Parts A and B), subcutaneous tafoxiparin vs placebo
Type: in vivo, human
Conditions: for women achieving spontaneous onset of labor (FIG. 1): placebo 28.7%; for number of subjects (women) that reach spontaneous onset of labor / subjects (women) that reach spontaneous onset of labor, % of n: cumulative
Experimental: A clinical phase II trial is performed as a randomized, double-blind, placebo-controlled, parallel-group proof of concept study (Part A) with a conditional dose finding follow up study (Part B) to evaluate the efficacy, safety, tolerability and dose response of subcutaneously administered tafoxiparin as a supplement to induction therapy in term pregnant, nulliparous women with an unripe cervix. The study is performed in Sweden and Finland (PPL17), and an EMA (European Medicines Agency) description of the study can be found on the EU Clinical Trials Register web (www.clinicaltrialsregister.eu/ctr-search/search?query=PPL17).
A total of 170 term pregnant women are randomized to receive either 300 mg of tafoxiparin, or corresponding placebo (vehicle), administered subcutaneously every 24±3 hours and up to a total of 7 doses, or until partus (Part A).
In the dose finding follow up study (Part B), a total of 164 term pregnant women are randomized to receive either 75 or 150 mg of tafoxiparin administered subcutaneously every 24±3 hours […] and up to a total of 7 doses, or until partus.
To assess the efficacy of tafoxiparin on cervical ripening/cervical ripening rate, during and up to the first seven days of treatment, measured by Bishop score. All women must be examined to check the cervical state before enrollment.
Tafoxiparin/Placebo is supplied by Dilafor AB to the site as kits designed to constitute 300 mg of tafoxiparin or placebo for daily administration. Apart from the active substance, each ml of study drug will constitute 0.015 M phosphate buffer. The study medication kit for each patient will contain 8 doses consisting of 2 vials containing a minimum extractable volume of 1.6 ml of 150 mg/ml of tafoxiparin or placebo. One dose is a reserve dose in case a dose is rendered unusable. The investigational product should be administered subcutaneously every 24±3 hours by the site staff for up to 7 doses, or until partus. At each dosing time 1.0 ml of the drug will be extracted from each of the 2 vials and injected as separate s.c. injections in the abdominal or hip region.
Tafoxiparin/Placebo is supplied by Dilafor AB to the site as kits designed to constitute 75 or 150 mg of tafoxiparin for daily administration. Apart from the active substance, each ml of study drug will constitute 0.015 M phosphate buffer. The study medication kit for each patient will contain 8 doses consisting of 2 vials for each injection occasion containing a minimum extractable volume of 1.6 ml of 150 mg/ml of tafoxiparin or placebo. For subjects receiving 75 mg of tafoxiparin, one vial will contain active substance and one containing placebo. For subjects receiving 150 mg of tafoxiparin, both vials will contain active substance. One dose is a reserve dose in case a dose is rendered unusable. The investigational product should be administered subcutaneously every 24±3 hours by the site staff for up to 7 doses, or until partus. At each dosing time, 0.5 ml of the drug will be extracted from each of the 2 vials and injected as separate s.c. injections in the abdominal or hip region.
If the subject is found to be eligible for the study, they will be randomized to study treatment, i.e. 300 mg of tafoxiparin or corresponding placebo daily (Part A), or 75 or 150 mg daily (Part B).
The study medication will be administered subcutaneously in the abdominal or hip region for up to a total of 7 doses or until labor induction or spontaneous onset of labor. If the cervix is still unripe after 7 doses of IMP, the patient is given cervical balloon catheter as a mean of labor induction.
Subjects who enter into spontaneous onset of labor after 1-7 doses of IMP should be managed according to clinical routines.
Subjects who are given 4-7 doses without entering into spontaneous onset of labor, but with a ripe cervix (Bishop Score ≥6), should be induced into labor by amniotomy and oxytocin treatment, but not before 4 treatment doses have been given. […]

## tafoxiparin
75 mg s.c. once daily up to 7 doses, 33 women of 82, p-value 0.102
  women achieving spontaneous onset of labor (FIG. 1): 40.2%
75 mg, 22 of the 29 women, placebo 54.5%
  women reaching spontaneous onset of labor with uncomplicated delivery: 75.9%
75 mg, Study day 1, n = 33
  number of subjects (women) that reach spontaneous onset of labor: 0
  subjects (women) that reach spontaneous onset of labor, % of n: (0%)
75 mg, Study day 2, n = 33
  number of subjects (women) that reach spontaneous onset of labor: 3
  subjects (women) that reach spontaneous onset of labor, % of n: (9%)
75 mg, Study day 3, n = 33
  number of subjects (women) that reach spontaneous onset of labor: 6
  subjects (women) that reach spontaneous onset of labor, % of n: (18%)
75 mg, Study day 4, n = 33
  number of subjects (women) that reach spontaneous onset of labor: 11
  subjects (women) that reach spontaneous onset of labor, % of n: (33%)
75 mg, Study day 5, n = 33
  number of subjects (women) that reach spontaneous onset of labor: 22
  subjects (women) that reach spontaneous onset of labor, % of n: (67%)
75 mg, Study day 6, n = 33
  number of subjects (women) that reach spontaneous onset of labor: 25
  subjects (women) that reach spontaneous onset of labor, % of n: (76%)
75 mg, Study day 7, n = 33
  number of subjects (women) that reach spontaneous onset of labor: 32
  subjects (women) that reach spontaneous onset of labor, % of n: (97%)
75 mg, Study day 8, n = 33
  number of subjects (women) that reach spontaneous onset of labor: 33
  subjects (women) that reach spontaneous onset of labor, % of n: (100%)
75 mg, n = 83
  Fetal distress as indication for operative delivery (ODFD), number of women: 16
  Labor induced with PGE-1, number of women: 7
  Labor induced with amniotomy, number of women: 46
  Labor induced with oxytocin, number of women: 34
  Labor induced, number of women: 48
  Labor induction with Balloon catheter, number of women: 35
  Number of patients with operative delivery: 32
75 mg, n = 83, placebo 10.2%
  Labor induced with PGE-1, % of women: 8.4%
75 mg, n = 83, placebo 22.7%
  Fetal distress as indication for operative delivery (ODFD), % of women: 19.3%
75 mg, n = 83, placebo 45.5%
  patients with operative delivery, %: 38.6%
75 mg, n = 83, placebo 54.5%
  Labor induced with oxytocin, % of women: 41.0%
75 mg, n = 83, placebo 56.8%
  Labor induced with amniotomy, % of women: 55.4%
75 mg, n = 83, placebo 58.0%
  Labor induction with Balloon catheter, % of women: 42.2%
75 mg, n = 83, placebo 70.5%
  Labor induced, % of women: 57.8%
75 mg, women with spontaneous onset of labor, 7 of the 29 women, p-value=0.181, placebo 45.5%
  women needing instrumental delivery (FIG. 4, vaginal mode of partus): 24.1%
75 mg, women with spontaneous onset of labor, 11 of 33 women, placebo 52%
  women needing instrumental delivery or caesarian section to reach partus (FIG. 5): 33.3%
75 mg, women with spontaneous onset of labor, 22 of 33 women, placebo 48%
  women reaching partus by vaginal delivery with no need for instrumental delivery nor caesarian section (FIG. 5): 66.7%
150 mg s.c. once daily up to 7 doses, 36 women of 85, p-value 0.039
  women achieving spontaneous onset of labor (FIG. 1): 42.4%
150 mg, 23 of the 32 women, placebo 54.5%
  women reaching spontaneous onset of labor with uncomplicated delivery: 71.9%
150 mg, Study day 1, n = 36
  number of subjects (women) that reach spontaneous onset of labor: 0
  subjects (women) that reach spontaneous onset of labor, % of n: (0%)
150 mg, Study day 2, n = 36
  number of subjects (women) that reach spontaneous onset of labor: 4
  subjects (women) that reach spontaneous onset of labor, % of n: (11%)
150 mg, Study day 3, n = 36
  number of subjects (women) that reach spontaneous onset of labor: 15
  subjects (women) that reach spontaneous onset of labor, % of n: (42%)
150 mg, Study day 4, n = 36
  number of subjects (women) that reach spontaneous onset of labor: 19
  subjects (women) that reach spontaneous onset of labor, % of n: (53%)
150 mg, Study day 5, n = 36
  number of subjects (women) that reach spontaneous onset of labor: 26
  subjects (women) that reach spontaneous onset of labor, % of n: (72%)
150 mg, Study day 6, n = 36
  number of subjects (women) that reach spontaneous onset of labor: 30
  subjects (women) that reach spontaneous onset of labor, % of n: (83%)
150 mg, Study day 7, n = 36
  number of subjects (women) that reach spontaneous onset of labor: 34
  subjects (women) that reach spontaneous onset of labor, % of n: (94%)
150 mg, Study day 8, n = 36
  number of subjects (women) that reach spontaneous onset of labor: 35
  subjects (women) that reach spontaneous onset of labor, % of n: (97%)
150 mg, Study day 9, n = 36
  number of subjects (women) that reach spontaneous onset of labor: 36
  subjects (women) that reach spontaneous onset of labor, % of n: (100%)
150 mg, n = 85
  Fetal distress as indication for operative delivery (ODFD), number of women: 20
  Labor induced with PGE-1, number of women: 7
  Labor induced with amniotomy, number of women: 39
